Here are results for eleven compounds from patent US9682995B2, “Amino-substituted isothiazoles” (BAYER PHARMA AKTIENGESELLSCHAFT, priority 2013, dated 2017).

For experiment [1], the system named is spindle assembly checkpoint. Nature of the experiment: SAC-Formation - Paclitaxel-Induced Assay. The class given is cell-based. As to conditions: Homo sapiens; HeLa cells, paclitaxel 0.05 μM, 24 h, phosphorylated histone H3 on serine 10. In short, it runs like this: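 HeLa cells were plated overnight, then given paclitaxel (0.05 μM final) plus compound (0.005-20 μM, 0.5% DMSO) for 24 h at 37° C. Fixed cells were stained for phospho-histone H3 Ser10 and with Hoechst, then imaged to give mitotic index. A fall in mitotic cells marks SAC breakthrough, and values were fit with a four-parameter Hill equation.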

The target of another experiment is human kinase Mps-1 (Homo sapiens (Human), UniProt P33981). Nature of the experiment: Mps-1 kinase assay (TR-FRET). The class given is biochemical. Particulars: 10 μM ATP; read-out: Mps1 avg (IC50 [mol/l]). In a few lines:
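GST-tagged full-length human Mps-1 (~0.5 nM) preincubated 15 min with compound, then reacted 60 min at 22 °C with 10 μM ATP and 1 μM biotinylated peptide in Hepes pH 7.7 buffer. Phosphoproduct detected by TR-FRET (Eu anti-phospho-Ser/Thr, SA-XLent); 665/620 ratio normalised to no-inhibitor and no-enzyme controls.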
For orientation: Time-resolved FRET reads energy transfer from a long-lived donor to a nearby acceptor.

Each structure is given as a SMILES string. A value given as a limit tells only on which side of the number the result lay.

Chain of human kinase Mps-1 (P33981 whole entry): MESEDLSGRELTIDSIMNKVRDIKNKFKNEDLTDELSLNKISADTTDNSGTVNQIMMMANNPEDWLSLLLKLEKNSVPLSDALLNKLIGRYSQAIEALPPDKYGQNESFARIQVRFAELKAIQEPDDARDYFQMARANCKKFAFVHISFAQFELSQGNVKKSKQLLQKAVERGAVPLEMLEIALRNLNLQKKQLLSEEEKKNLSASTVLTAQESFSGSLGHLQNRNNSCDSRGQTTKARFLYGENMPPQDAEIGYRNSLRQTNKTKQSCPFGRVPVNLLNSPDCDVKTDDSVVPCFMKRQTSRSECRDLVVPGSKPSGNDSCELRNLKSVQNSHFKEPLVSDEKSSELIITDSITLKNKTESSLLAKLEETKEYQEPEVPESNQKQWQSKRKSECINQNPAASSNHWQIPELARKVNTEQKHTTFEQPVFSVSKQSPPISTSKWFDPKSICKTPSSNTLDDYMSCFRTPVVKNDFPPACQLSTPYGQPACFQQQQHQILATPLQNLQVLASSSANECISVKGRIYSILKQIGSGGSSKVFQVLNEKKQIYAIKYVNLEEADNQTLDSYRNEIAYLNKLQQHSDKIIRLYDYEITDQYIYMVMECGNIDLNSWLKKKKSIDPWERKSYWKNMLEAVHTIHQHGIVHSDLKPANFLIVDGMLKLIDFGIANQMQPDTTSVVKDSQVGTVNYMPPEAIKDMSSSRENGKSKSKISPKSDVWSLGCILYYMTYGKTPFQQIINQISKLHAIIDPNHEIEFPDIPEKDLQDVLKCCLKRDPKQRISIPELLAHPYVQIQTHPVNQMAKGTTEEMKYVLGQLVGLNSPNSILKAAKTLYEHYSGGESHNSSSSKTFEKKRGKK

As to `COc1ccc(NC(=O)c2c(C)nsc2Nc2nc3ccc(C)cc3s2)cn1` [Example 90, N-(6-Methoxypyridin-3-yl)-3-methyl-5-[(6-methyl-1,3-benzothiazol-2-yl)amino]-1,2-thiazole-4-carboxamide], the IC50 was 2300 nM in experiment [1] and over 20000 nM on human kinase Mps-1.

As for `CCc1ccccc1NC(=O)c1c(C)nsc1Nc1nccc(-c2ccccc2)n1` [Example 5, N-(2-Ethylphenyl)-3-methyl-5-[(4-phenylpyrimidin-2-yl)amino]-1,2-thiazole-4-carboxamide], the IC50 (in experiment [1]; at human kinase Mps-1) was over 20000 nM in each case.

Take `COc1ccc(NC(=O)c2c(C)nsc2Nc2cncc(C(F)(F)F)n2)cn1` [Example 84, N-(6-methoxypyridin-3-yl)-3-methyl-5-{[6-(trifluoromethyl)pyrazin-2-yl]amino}-1,2-thiazole-4-carboxamide]: the IC50 is 65 nM in experiment [1] and over 20000 nM on human kinase Mps-1.

For the compound `Cc1nsc(Nc2cncc(-n3cccn3)n2)c1C(=O)Nc1ccc(Cl)c(F)c1` [Example 67, N-(4-Chloro-3-fluorophenyl)-3-methyl-5-{[6-(1H-pyrazol-1-yl)pyrazin-2-yl]amino}-1,2-thiazole-4-carboxamide], the IC50 was 22 nM in experiment [1] and over 20000 nM at human kinase Mps-1.

Turning to `CCNC(=O)c1cncc(Nc2snc(C)c2C(=O)Nc2ccc(F)c(F)c2)n1` [Example 73, 6-({4-[(3,4-Difluorophenyl)carbamoyl]-3-methyl-1,2-thiazol-5-yl}amino)-N-ethylpyrazine-2-carboxamide], the IC50 in experiment [1] was 63 nM; at human kinase Mps-1, over 20000 nM.

For `Cc1nsc(Nc2cnc3cc(C(F)(F)F)ccc3n2)c1C(=O)Nc1ccc(Cl)c(F)c1` [Example 68, N-(4-Chloro-3-fluorophenyl)-3-methyl-5-{[6-(trifluoromethyl)quinoxalin-2-yl]amino}-1,2-thiazole-4-carboxamide], the figures for the IC50 (in experiment [1]; at human kinase Mps-1) were 30 nM and over 20000 nM, respectively.

For `Cc1nsc(Nc2ccc(C#N)cn2)c1C(=O)Nc1ccc(Cl)c(Cl)c1` [Example 62, 5-[(5-Cyanopyridin-2-yl)amino]-N-(3,4-dichlorophenyl)-3-methyl-1,2-thiazole-4-carboxamide], the IC50 is 33 nM in experiment [1] and over 20000 nM on human kinase Mps-1.

Regarding `CCNc1cncc(Nc2snc(C)c2C(=O)Nc2ccc(F)c(F)c2)n1` [Example 78, N-(3,4-Difluorophenyl)-5-{[6-(ethylamino)pyrazin-2-yl]amino}-3-methyl-1,2-thiazole-4-carboxamide], the IC50 in experiment [1] turned out to be 910 nM; at human kinase Mps-1, 16000 nM.

For `Cc1cncc(Nc2snc(C)c2C(=O)Nc2ccc(F)c(F)c2)n1` [Example 69], the IC50 in experiment [1] was 10 nM; on human kinase Mps-1, over 20000 nM.

For the compound `Cc1nsc(Nc2cnc(Cl)cn2)c1C(=O)Nc1ccc(F)c(F)c1` [Example 74, 5-[(5-Chloropyrazin-2-yl)amino]-N-(3,4-difluorophenyl)-3-methyl-1,2-thiazole-4-carboxamide], the IC50 in experiment [1] is 31 nM; on human kinase Mps-1, over 20000 nM.

Take `COc1ccc(NC(=O)c2c(C)nsc2Nc2nc3cccnc3s2)cn1` [Example 89, N-(6-Methoxypyridin-3-yl)-3-methyl-5-([1,3]thiazolo[5,4-b]pyridin-2-ylamino)-1,2-thiazole-4-carboxamide]: the IC50 in experiment [1] was 2300 nM; at human kinase Mps-1, over 20000 nM.
